Legend:
48 human cytokines [1] = test: LPS-induced human cytokines in plasma of humanized mice (Human Cytokine 48-Plex Discovery Assay), Example 3; format: in vivo; conditions: for induction of human proinflammatory cytokines by LPS: 15u 30 mg/kg p.o. or BI-1347 10 mg/kg p.o., LPS 1 mg/kg i.p., plasma 6 hrs after LPS
Method: Mice were randomized into 6 groups (n=4-5), Group 1 being untreated control, Group 2 receiving 15u (a.k.a. SNX) (30 mg/kg p.o., administered as in example 2), Group 3 receiving LPS (1 mg/kg i.p.), Group 4 receiving LPS plus 15u administered 1 hr before LPS, Group 5 receiving LPS plus 15u administered 0.5 hr after LPS, and Group 6 receiving LPS plus CDK8/19 inhibitor BI-1347 (28) (10 mg/kg dissolved in 30% Propylene Glycol/70% PEG-400, p.o.) administered 1 hr before LPS. Mice were euthanized 6 hrs after LPS dosing and terminal blood samples were collected for cytokine analysis. As in Example 2, the effects of LPS and 15u on the expression of 48 human cytokines were measured using Human Cytokine 48-Plex Discovery Assay (Eve Technologies) using plasma samples at 1:100 dilution. The results of this analysis are shown in FIG. 5 for those cytokines that were induced by LPS. To assure more accurate assessment of effects of CDK8/19 inhibition on LPS-induced cytokines, 4 LPS-treated animals with low serum level (below 100 pg/mL) of IL-10, the cytokine whose LPS-mediated induction is not decreased by CDK8/19 inhibition, were excluded from the analysis (the low levels of cytokines in such animals are possibly due to insufficient administration of LPS). In this study, fewer cytokines (19 of 48) were induced by LPS than in Example 2, with many cytokines showing apparently higher expression levels in untreated mice possibly reflecting an inflammatory process that could have developed in humanized mice at the late time point (25-26 weeks) after the transplantation of CD34+ hematopoietic stem cells. Nevertheless, as in example 2, the induction of most of the LPS-induced cytokines was decreased by CDK8/19 inhibitor treatment (FIG. 5), including G-CSF, IFN-γ, IL-1 (α and β), IL-6, IL-8, MIG/CXCL9, MCP-1, MIP-1β and TNF (α and β) and IP-10. Among LPS-induced cytokines, only anti-inflammatory IL-10 was induced to a greater degree with than without CDK8/19 inhibitor treatment, an indication of anti-inflammatory activity. […]

48 human cytokines [2] = test: LPS-induced human cytokines in plasma of humanized mice (Human Cytokine 48-Plex Discovery Assay), Example 2; format: in vivo; conditions: plasma 6 hrs after LPS
Excerpt: (§1) To test the effect of CDK8/19 inhibition on LPS-induced cytokine expression in human immune cells, we carried out a study on humanized mice transplanted with human hematopoietic stem cells; such mice contain human blood cells of myeloid and lymphoid lineages as well as mouse blood cells. We have used CIEA NOG-EXL mice (Taconic model #13395) engrafted with human umbilical cord blood-derived CD34+ hematopoietic stem cells 21 weeks before the study. All the mice were female, 25-27 weeks old, and had >45% hCD45+ cells in blood. Eight mice were treated with 1 mg/kg LPS i.p.; this dose was selected based on the finding of (38) that 12.5 μg (˜0.5 mg/kg) produced stronger cytokine induction than 50 μg (˜2 mg/kg) in humanized mice. The first group of LPS-treated mice (n=3) (G1) received vehicle alone by oral gavage 1 hr before LPS, the second group (n=3) received 15u at 30 mg/kg by oral gavage 1 hr before LPS, and the third group (n=2) (G3) received 15u at 30 mg/kg by oral gavage 0.5 hrs after LPS. Blood samples were collected from each mouse one week before LPS dosing. Mice were euthanized 6 hrs after LPS dosing and terminal blood samples were collected for cytokine analysis; in addition, spleens were collected for RNA analysis.
The effects of LPS and 15u on the expression of 48 human cytokines were measured using Human Cytokine 48-Plex Discovery Assay (Eve Technologies) using plasma samples at 1:100 dilution. […] The results of this analysis are shown in FIG. 2 for 33 of 48 cytokines that were induced by LPS>2-fold (cytokine plots are shown in the order of fold induction by LPS). […] These included 14 mediators of cytokine storm listed in Table 1: GM-CSF, IFN-γ, IL-1 (α and β), IL-6, IL-8, IL-12 (p40 and p70), IL-18, MIG/CXCL9, MIP-1 (α and β) and TNF (α and β).

panel of 468 kinases = conditions: at 2000 nM, cited from earlier work
[3] = tested on: human cytokines associated with cytokine storm (Table 1); test: RNA-Seq of spleens of LPS-treated humanized mice, human cytokines associated with cytokine storm; format: in vivo, humanized CIEA NOG-EXL mice (human transcripts); conditions: 6 hrs after LPS
Excerpt: as §1
(§2) RNA from spleens of mice of G1-3, euthanized 6 hrs after LPS dosing, was analyzed by RNA-Seq. […]

[4] = tested on: mouse cytokines: IL-1β, IL-6, IL-10, MCP-1 and TNF-α; test: LPS-induced cytokine expression in plasma of C57BL/6 mice (MSD U-plex custom panel); format: in vivo, C57BL/6 male mice; conditions: 30 mg/kg oral gavage 2 hrs prior to LPS 10 mg/kg i.p.; plasma 2 hrs and 6 hrs after LPS
Method: Cytokine storm was induced in C57BL/6 male mice by intraperitoneal (i.p.) injection of LPS (10 mg/kg). Two groups of LPS-treated mice (n=5) received 30 mg/kg 15u dissolved in 30% Propylene Glycol, 70% PEG-400 or vehicle control (5 mice per group), via oral gavage 2 hrs prior to LPS dosing. Blood was collected immediately before LPS dosing, 2 hrs after LPS and 6 hrs after LPS (at which time point the animals were euthanized). Plasma samples (1:100 dilution for 2 hr and 6 hr samples, 1:5 dilution for pre-LPS samples) were used to analyze the cytokines with the MSD U-plex custom panel for the following mouse cytokines: IL-1β, IL-6, IL-10, MCP-1 and TNF-α.

32 mouse cytokines = test: LPS-induced mouse cytokines in plasma of humanized mice (Mouse Cytokine 32-Plex Discovery Assay), Example 2; format: in vivo, humanized CIEA NOG-EXL mice; conditions: 30 mg/kg p.o. 1 hr before LPS; plasma 6 hrs after LPS
Excerpt: as §1
We have also used the same plasma samples (at 1:100 dilution) to measure the expression of 32 mouse cytokines using Mouse Cytokine 32-Plex Discovery Assay (Eve Technologies).

[5] = tested on: mouse cytokines associated with cytokine storm (Table 1); test: RNA-Seq of spleens of LPS-treated humanized mice, mouse cytokines associated with cytokine storm; format: in vivo, humanized CIEA NOG-EXL mice (mouse transcripts); conditions: 6 hrs after LPS
Excerpt: as §1, §2

SMILES | induction of human proinflammatory cytokines by LPS (48 human cytokines [1]) | suppression of proinflammatory cytokine induction, 15u administered 0.5 hours after LPS compared with 1 hour before LPS (48 human cytokines [1]; 30 mg/kg p.o., in most cases) | number of the most strongly LPS-induced human cytokines whose induction was suppressed (48 human cytokines [2]; 30 mg/kg oral gavage 1 hr before LPS 1 mg/kg i.p.) | LPS-induced human IP-10 (48 human cytokines [2]; 30 mg/kg p.o. 1 hr before LPS) | LPS-induced human MCP-1 (48 human cytokines [2]; 30 mg/kg p.o. 1 hr before LPS) | LPS-induced human anti-inflammatory IL-10 (48 human cytokines [2]; 30 mg/kg p.o. 1 hr before LPS) | over-induction of human IL-10 (48 human cytokines [2]; 30 mg/kg p.o. 1 hr before LPS) | induction of 14 mediators of cytokine storm: GM-CSF, IFN-γ, IL-1 (α and β), IL-6, IL-8, IL-12 (p40 and p70), IL-18, MIG/CXCL9, MIP-1 (α and β), TNF (α and β) (48 human cytokines [2]; human cytokines, 30 mg/kg p.o. 1 hr before LPS) | S(35) S-score (panel of 468 kinases; S(#)=(number of non-mutant kinases with % Ctrl<#)/(number tested)) | S(10) S-score (panel of 468 kinases) | number of human cytokines with decreased RNA amounts in spleen ([3]; 15u 30 mg/kg p.o. administered after LPS (G3) vs LPS alone (G1)) | number of human cytokines with decreased RNA amounts in spleen ([3]; 15u 30 mg/kg p.o. administered before LPS (G2) vs LPS alone (G1)) | effect on LPS-induced expression of the assayed cytokines (IL-1β, IL-6, IL-10, MCP-1, TNF-α) [4] | LPS-induced mouse IL-7 (32 mouse cytokines) | LPS-induced mouse IL-10 (32 mouse cytokines) | effect on LPS-induced mouse cytokines (27 of 32 induced) (32 mouse cytokines) | number of mouse cytokines with decreased RNA in spleen ([5]; 15u-treated G2 or G3 relative to G1) | number of mouse cytokines (including TNF and IL-10) with elevated RNA in spleen ([5]; G2 and especially G3 relative to G1)
CN(C)C(=O)Cn1cc(-c2ccc(-c3cncc4ccccc34)cc2)cn1 [BI-1347, 2-(4-(4-(isoquinolin-4-yl)phenyl)-1H-pyrazol-1-yl)-N,N-dimethylacetamide, reference compound] | broadly suppressed |  |  |  |  |  |  |  |  |  |  |  |  |  |  |  |  | 
CN(C)C(=O)c1ccc(N2CCCN(c3ccnc4sc(C(N)=O)c(N)c34)CC2)cc1 [15u, 3-amino-4-(4-(4 (dimethylcarbamoyl)phenyl)-1,4-diazepan-1-yl)thieno[2,3-b]pyridine-2-carboxamide] | suppressed | stronger | 24 of 27 | not inhibited | not inhibited | only borderline inhibition | not over-induced | suppressed | less than 0.02 | < 0.004 | 15 of 26 | 18 of 26 | no significant effect | weakly inhibited | over-induced | most of them were unaffected | 3 of 27 | 7

Source: patent publication US20240180921A1, “CDK8/19 INHIBITORS FOR THE TREATMENT OF CYTOKINE STORM” (University of South Carolina, priority 2021, published 2024)
